Data taken from US20170173052A1, “METHODS OF TREATING OVARIAN CANCER” (Cipla Limited, priority 2015, published 2017).
pIC50: −log10 of the molar value. Read-outs that look alike come from different tables or passages of the source.

Key:
IGR-OV1 [1] = assay: In vitro cytotoxicity 3D clonogenic assay; format: cell-based, human; conditions: based on relative IC50
Description: (§1) In the present study methacycline and the reference compound paclitaxel were investigated for anticancer activity ex vivo in eight human tumor cell lines of ovarian cancer. Tests were carried out using a 3D clonogenic assay in 96-well format with image based read-out. The aim of the study was to investigate antitumor potency and tumor type selectivity of the compound. Cell lines were routinely passaged one or twice weekly. All cells were grown at 37° C. in a humidified atmosphere with 5% CO2 in RPMI 1640 medium (Biochrom) supplemented with 10% (v/v) fetal calf serum and 0.1 mg/mL gentamicin. The percentage of viable cells was determined in a Neubauer-hemocytometer using trypan blue exclusion.
(§2) The clonogenic assay was carried out in a 96 well plate format using ultra low attachment plates. For each test, cells were prepared as described above and assay plates were prepared as follows: each test well contained a layer of semi-solid medium with tumor cells (50 μL), and a second layer of medium supernatant with or without test compound (100 μL). The cell layer consisted of 2·10^3 to 3·10^3 tumor cells per well, which were seeded in 50 μL/well cell culture medium (IMDM, supplemented with 20% (v/v) fetal calf serum, 0.01% (w/v) gentamicin, and 0.4% (w/v) agar. After 24 hours the test compounds were added after serial dilution in cell culture medium, and left on the cells for the duration of the experiment (continuous exposure, 100 μl drug overlay). Test concentrations ranged from 0.01 μM to 316.2 μM (methacycline), and 0.000095 μM to 3 (paclitaxel). Every plate included six untreated control wells and drug-treated groups in duplicate at 9 concentrations. Cultures were incubated at 37° C. and 7.5% CO2 in a humidified atmosphere for 8 to 13 days and monitored closely for colony growth using an inverted microscope. Within this period, ex vivo tumor growth led to the formation of colonies with a diameter of >50 μm. At the time of maximum colony formation, counts were performed with an automatic image analysis system (Bioreader 5000-Wa Biosys GmbH). 48 hours prior to evaluation, vital colonies were stained with a sterile aqueous solution of 2-(4-iodophenyl)-3-(4-nitrophenyl)-5-phenyltetrazolium chloride (1 mg/ml, 100 μl/well)

OVCAR-5 [2] = assay: In vitro cytotoxicity 3D clonogenic assay; format: cell-based, human; conditions: based on relative IC50
Description: as §1, §2

OVCAR3 = assay: In vitro cytotoxicity 3D clonogenic assay; format: cell-based, human; conditions: based on relative IC50 (individual IC50 <1/2 mean IC50)
Description: as §1, §2

OVXF SK-OV-3 = assay: In vitro combination study, 2D monolayer CellTiter-Blue, 5x5 matrix; format: cell-based; conditions: Homo sapiens, 96 h, single agent, four days, read-out: IC50, tumor cell viability, single agent
Description: (§3) The objective of this study was to assess anti-tumor efficacy of methacycline in combination with paclitaxel in a 5×5 matrix combination format against various ovarian cancer cell lines. The compounds were tested in ovarian cell lines, namely OVXF A2780 and OVXF SK-OV-3, obtained from National Cancer Institute (Bethesda, Md., USA). OVXF SKOV-3 cells were obtained from American Type Culture Collection (Rockville, Md., USA). Authenticity of cell lines was confirmed at the DSMZ by STR analysis. Cell lines were routinely passaged once or twice weekly and maintained in culture for up to 20 passages. Cells were grown at 37° C. in a humidified atmosphere with 5% CO2 in RPMI 1640 medium (25 mM HEPES, with L-glutamine, Biochrom) supplemented with 10% (v/v) fetal calf serum and 0.1 mg/mL gentamicin. The percentage of viable cells was determined in a Neubauer-hemocytometer using trypan blue exclusion.
The CellTiter-Blue® Cell Viability Assay (#G8081, Promega) was used according to manufacturer's instructions. Briefly, cells were harvested from exponential phase cultures, counted and plated in 96-well flat-bottom microtiter plates at a cell density of 4,000-8,000 cells/well depending on the cell line's growth rate. […] Following an incubation period of up to four hours, fluorescence (FU) was measured by using the Enspire Multimode Plate Reader (excitation λ=531 nm, emission λ=615 nm). […]

[3] = tested on: eight human tumor cell lines of ovarian cancer; assay: In vitro cytotoxicity 3D clonogenic assay, panel; format: cell-based; conditions: for pIC50: Homo sapiens, continuous exposure 8 to 13 days
Description: as §1
as §2, with “48 hours prior to evaluation, vital colonies were stained with a sterile aqueous solution of 2-(4-iodophenyl)-3-(4-nitrophenyl)-5-phenyltetrazolium chloride (1 mg/ml, 100 μl/well)” left out

[4] = tested on: eight selected human ovarian cancer cell lines; assay: In vitro cytotoxicity 2D assay (CellTiter-Blue cell viability), panel mean; format: cell-based; conditions: for pIC50: 96 h treatment, mean over eight ovarian cancer cell lines, read-out: geometric mean absolute IC50 value
Text: (§4) In the present study the human ovarian cancer cell lines OVXF 899, OVXF 1023, A2780, SK-OV-3, OVCAR-3, IGR-OV1, OVCAR-5 and NCI/ADR-RES were used. OVXF 899 and OVXF 1023 were established at Oncotest, Germany from the corresponding human patient derived xenograft. A2780, IGR-OV1, NCl/ADR-RES, OVCAR-3 and OVCAR-5 were kindly provided by the NCI (National Cancer Institute, Bethesda, Md., USA). SK-OV-3 was purchased from ATCC (Rockville, Md., USA). Authenticity of cell lines was confirmed at the DSMZ by STR (short tandem repeat) analysis, a PCR based DNA-fingerprinting methodology. Cell lines were routinely passaged once or twice weekly and maintained in culture for up to 20 passages. All cells were grown at 37° C. in a humidified atmosphere with 5% CO2 in RPMI 1640 medium (25 mM HEPES, with L-glutamine, #FG1385, Biochrom, Berlin, Germany) supplemented with 10% (v/v) fetal calf serum (Sigma, Taufkirchen, Germany) and 0.1 mg/mL gentamicin (Life Technologies, Karlsruhe, Germany).
(§5) The CellTiter-Blue® Cell Viability Assay (#G8081, Promega) was used according to manufacturer's instructions. Briefly, cells were harvested from exponential phase cultures, […] on the cell line's growth rate. After a 24 h recovery period to allow the cells to resume exponential growth, test compounds were added.
(§6) Following an incubation period of up to four hours, fluorescence (FU) was measured by using the Enspire Multimode Plate Reader (excitation λ=531 nm, emission λ=615 nm). For calculations, the mean values of duplicate/six fold (untreated control) data were used. Sigmoidal concentration-response curves were fitted to the data points (T/C values) obtained for each cell line using 4 parameter non-linear curve fit (Oncotest Warehouse Software).
The in vitro anti-tumor activity of methacycline in eight selected human ovarian cancer cell lines were evaluated. […] Anti-tumor activity was assessed by using the CellTiter-Blue® Cell Viability Assay. Potency is expressed as absolute IC50 and relative IC50 values, calculated by non-linear regression analysis. […]

OVXF IGR-OV1 = assay: In vitro combination study, 2D monolayer CellTiter-Blue, 5x5 matrix; format: cell-based, human; conditions: single agent, four days, read-out: IC50, tumor cell viability, single agent
Description: as §3
(§7) The CellTiter-Blue® Cell Viability Assay (#G8081, Promega) was used according to manufacturer's instructions. Briefly, cells were harvested from exponential phase cultures, counted and plated in 96-well flat-bottom microtiter plates at a cell density of 4,000-8,000 cells/well depending on the cell line's growth rate. After a 24 h recovery period to allow the cells to resume exponential growth, 10 μL of culture medium (twelve control wells/plate) or of culture medium with test compound were added, and treatment continued for four days. After four days treatment of cells, 20 μl/well CellTiter-Blue® reagent was added. Following an incubation period of up to four hours, fluorescence (FU) was measured by using the Enspire Multimode Plate Reader (excitation λ=531 nm, emission λ=615 nm). […]
(§8) In the present study, methacycline was tested alone and in combination with paclitaxel in order to investigate the ability to inhibit tumor cell growth of ovarian cancer cell lines in a 5×5 matrix combination format. Efficacy of methacycline combined with paclitaxel was assessed by measuring tumor cell viability using a 2D monolayer assay in cell lines OVXF A2780, OVXF IGR-OV1, OVXF SK-OV-3.

NCI-ADR-RES = assay: In vitro cytotoxicity 3D clonogenic assay; format: cell-based, human
Description: as §1, §2

SK-OV-3 [5] = assay: In vitro cytotoxicity 3D clonogenic assay; format: cell-based, human; conditions: based on relative IC50 (individual IC50 <1/2 mean IC50)
Description: as §1, §2

A2780 [6] = assay: In vitro cytotoxicity 3D clonogenic assay; format: cell-based, human; conditions: based on relative IC50 (individual IC50 <1/2 mean IC50)
Description: as §1, §2

OVXF 1023L = assay: In vitro cytotoxicity 3D clonogenic assay; format: cell-based, human
Description: as §1, §2

OVXF 899L = assay: In vitro cytotoxicity 3D clonogenic assay; format: cell-based, human
Description: as §1, §2

[7] = tested on: ovarian cancer cell lines A2780, OVCAR3, OVCAR-5, and SK-OV-3; assay: In vitro cytotoxicity 3D clonogenic assay, responding lines; format: cell-based, human; conditions: range over A2780, OVCAR3, OVCAR-5, SK-OV-3, read-out: IC50 values, inhibition of colony formation
Description: as §1
The clonogenic assay was carried out in a 96 well plate format using ultra low attachment plates. For each test, cells were prepared as described above and assay plates were prepared as follows: each test well contained a layer of semi-solid medium with tumor cells (50 μL), and a second layer of medium supernatant with or without test compound (100 μL). […] Cultures were incubated at 37° C. and 7.5% CO2 in a humidified atmosphere for 8 to 13 days and monitored closely for colony growth using an inverted microscope. […]

IGR-OV1 [8] = assay: In vitro cytotoxicity 2D assay (CellTiter-Blue cell viability); format: cell-based, human; conditions: 96 h treatment, read-out: absolute IC50
Text: as §4, §5, §6
(§9) The in vitro anti-tumor activity of methacycline in eight selected human ovarian cancer cell lines were evaluated. The test compounds was applied at 10 concentrations in half-log increments up to 300 μM. As a reference compound paclitaxel was tested in parallel. Cells were treated for 96 h with the test compounds. Anti-tumor activity was assessed by using the CellTiter-Blue® Cell Viability Assay. Potency is expressed as absolute IC50 and relative IC50 values, calculated by non-linear regression analysis. Results are depicted in FIGS. 1-4.

SK-OV-3 [9] = assay: as above; format: cell-based, human; conditions: 96 h treatment, read-out: absolute IC50
Text: as §4, §5, §6, §9

NCI/ADR-RES = assay: as above; format: cell-based, human; conditions: 96 h treatment, read-out: absolute IC50
Text: as §4, §5, §6, §9

A2780 [10] = assay: as above; format: cell-based, human; conditions: 96 h treatment, read-out: absolute IC50
Text: as §4, §5, §6, §9

OVCAR-5 [11] = assay: as above; format: cell-based, human; conditions: 96 h treatment, read-out: absolute IC50
Text: as §4, §5, §6, §9

OVCAR-3 = assay: as above; format: cell-based, human; conditions: 96 h treatment, read-out: absolute IC50
Text: as §4, §5, §6, §9

OVXF A2780 = assay: In vitro combination study, 2D monolayer CellTiter-Blue, 5x5 matrix; format: cell-based, human; conditions: single agent, four days, read-out: IC50, tumor cell viability, single agent
Description: as §3, §7, §8

**Q.** With CC(=O)O[C@H]1C(=O)[C@@]2(C)[C@H]([C@H](OC(=O)c3ccccc3)[C@]3(O)C[C@H](OC(=O)[C@H](O)[C@@H](NC(=O)c4ccccc4)c4ccccc4)C(C)=C1C3(C)C)[C@]1(OC(C)=O)CO[C@@H]1C[C@@H]2O [paclitaxel] as the compound, how does the “activity against colony formation” value (IGR-OV1 [1]) read?
**A.** above average activity

**Q.** And the “activity against colony formation” value (OVCAR-5 [2])?
**A.** above average activity

**Q.** And the “activity against colony formation” value (OVCAR3)?
**A.** above average activity

**Q.** What about the pIC50 (OVXF SK-OV-3) of the same compound?
**A.** 8.05

**Q.** What about the pIC50 ([3]; read-out: mean absolute IC50 value, colony formation) of the same compound?
**A.** 7.11

**Q.** And the pIC50 ([3]; read-out: mean relative IC50 value, colony formation)?
**A.** 7.92

**Q.** And the “bottom plateaus of the concentration-effect curves of responding tumor models” value ([3]; responding tumor models)?
**A.** 0% to 60

**Q.** What about the pIC50 ([4]; Homo sapiens) of the same compound?
**A.** 7.35

**Q.** And the pIC50 (OVXF IGR-OV1; Homo sapiens, IGROV-1, 96 h)?
**A.** 8.52

**Q.** methacycline was tested. Which “activity against colony formation” value (IGR-OV1 [1]) did it give?
**A.** No activity

**Q.** What about the “activity against colony formation” value (NCI-ADR-RES) of the same compound?
**A.** No activity

**Q.** What about the “activity against colony formation” value (SK-OV-3 [5]) of the same compound?
**A.** above average activity

**Q.** What about the “activity against colony formation” value (A2780 [6]) of the same compound?
**A.** above average activity

**Q.** And the “activity against colony formation” value (OVXF 1023L)?
**A.** No activity

**Q.** And the “activity against colony formation” value (OVCAR3)?
**A.** above average activity

**Q.** And the “activity against colony formation” value (OVXF 899L)?
**A.** No activity

**Q.** And the pIC50 [7]?
**A.** 4.15 to 4.27

**Q.** And the pIC50 [4]?
**A.** 4.57

**Q.** What about the “difference between the most sensitive and most resistant cell line” value ([4]; IGR-OV1 vs NCI/ADR-RES IC50) of the same compound?
**A.** 13 fold

**Q.** What about the pIC50 (IGR-OV1 [8]) of the same compound?
**A.** 5.10

**Q.** And the pIC50 (SK-OV-3 [9])?
**A.** 4.73

**Q.** And the pIC50 (NCI/ADR-RES)?
**A.** 3.98

**Q.** And the pIC50 (A2780 [10])?
**A.** 4.64

**Q.** And the pIC50 (OVCAR-5 [11])?
**A.** 4.84

**Q.** And the pIC50 (OVCAR-3)?
**A.** 4.76

**Q.** And the pIC50 (OVXF A2780)?
**A.** 4.46

**Q.** What about the pIC50 (OVXF IGR-OV1) of the same compound?
**A.** 4.36
